Tests used:
[1] = tested on: participants with SSc-RP; experiment: Average pain score recorded during weekly RP attacks (11-point Likert scale); assay type: in vivo, human; conditions: for Average Pain Score Change From Baseline [Mean (SD)]: Table G
From the text: The absolute change in average pain score (11-point Likert scale) of weekly RP attacks from baseline to the end of each Dosing Period will be a secondary outcome variable. The sponsor-developed participant-informed diary will be used to record data. The average pain score of weekly RP attacks is defined as the total pain scores divided by total number of RP attacks within the last 7 days of each dosing period. Average of the last 7 days of screening assessments will be used as baseline for the analysis of all periods. The variable will be calculated similar to frequency data as before.

[2] = tested on: participants with SSc-RP; experiment: SHAQ - Visual Analog Scale - Pain; assay type: in vivo, human; conditions: for % change in Pain: SHAQ, mITT Part A
From the text: The standard, validated, patient reported outcome measures tool for SSc patients, the Scleroderma Health Assessment Questionnaire (SHAQ), will be used to assess the participant qualify of life. Details are attached in the Appendix. The participant quality of life will be scored, and a disability index calculated for each questionnaire completed by the patient at Screening and each in-clinic visit. The absolute change in participant quality of life from baseline to the end of each dosing period will be calculated similar to frequency data as before.
The standard, validated, patient reported outcome measures tool for SSc patients, the SHAQ, was collected at the time points specified in the study schedules (FIG. 2 and FIGS. 4A and 4B) to assess the participant's quality of life. The SHAQ included a Raynaud's VAS that will also be reported separately.
Pain on the SHAQ outcome measure on the first line in table F is a composite of all pain experienced in patients with SSc, comprising joint pain, back pain, headache, odynophagia, skin ulcer related discomfort, Raynaud's, and neuropathic pain. Aisa Pharma believes, based on the biologic attributes and actions of cilnidipine that differ from most dihydropyridine calcium channel antagonists that cilnidipine might have direct analgesic effects in certain pain conditions and in fact has been designated to receive evaluation through the […] Preclinical Pain Screening Platform Program to investigate the drug in multiple in vitro and in vivo preclinical models of pain that are validated and predictive of effects in man.

[3] = Any Cilnidipine (N = 17), Day 12, PP Population, Part A
[4] = Cilnidipine 10 mg, SSc patients, PP, Part A
[5] = Cilnidipine 20 mg, SSc patients, PP, Part A
[6] = Modified ITT Population-Part A, Day 12, dose cilnidipine 10 mg, tadalafil 5 mg, alone or combined as labelled
[7] = Modified ITT Population-Part A, Day 12, dose cilnidipine 20 mg, tadalafil 5 mg, alone or combined as labelled
[8] = Pooled Cilnidipine (N = 8), Day 12, PP Population, Part A

Compound: COCCOC(=O)C1=C(C)NC(C)=C(C(=O)OC/C=C/c2ccccc2)C1c1cccc([N+](=O)[O-])c1 (stereo not shown) [Cilnidipine]
- Average Pain Score Change From Baseline [Mean (SD)] ([1]; Cilnidipine 10 mg (n = 4)): 0.47
- Average Raynaud's Pain (change) ([1]; Cilnidipine 20 mg (n = 3)): 12%
- Average Pain Score Change From Baseline [Mean (SD)] ([1]; Cilnidipine 20 mg (n = 3)): −0.47
- Average Raynaud's Pain (change) ([1]; Pooled Cilnidipine (n = 7)): −27%
- SHAQ Visual Analogue Scale - Pain, Change from Baseline, Mean (SD) [2, 3]: −0.575 (1.0318)
- SHAQ Visual Analogue Scale - Pain, Change from Baseline, Median [2, 3]: −0.600
- SHAQ Visual Analogue Scale - Pain, In-Clinic Visit (Day 12), Mean (SD) [2, 3]: 2.476 (1.7312)
- SHAQ Visual Analogue Scale - Pain, In-Clinic Visit (Day 12), Median [2, 3]: 2.200
- SHAQ Visual Analogue Scale - Pain, Percent Change from Baseline, Mean (SD) [2, 3]: −22.77 (31.937) %
- SHAQ Visual Analogue Scale - Pain, Percent Change from Baseline, Median [2, 3]: −22.58%
- SHAQ VAS Pain, Change from Baseline, Max [2, 4]: 0.30
- SHAQ VAS Pain, Change from Baseline, Mean [2, 4]: −0.100
- SHAQ VAS Pain, Change from Baseline, Median [2, 4]: 0.000
- SHAQ VAS Pain, Change from Baseline, Min [2, 4]: −0.70,
- SHAQ VAS Pain, Change from Baseline, Q1 [2, 4]: −0.350,
- SHAQ VAS Pain, Change from Baseline, Q3 [2, 4]: 0.150
- SHAQ VAS Pain, Day 12, Max [2, 4]: 3.60
- SHAQ VAS Pain, Day 12, Mean [2, 4]: 1.875
- SHAQ VAS Pain, Day 12, Median [2, 4]: 1.950
- SHAQ VAS Pain, Day 12, Min [2, 4]: 0.00,
- SHAQ VAS Pain, Day 12, Q1 [2, 4]: 0.500,
- SHAQ VAS Pain, Day 12, Q3 [2, 4]: 3.250
- SHAQ VAS Pain, Percent Change from Baseline, Max [2, 4]: 11.5
- SHAQ VAS Pain, Percent Change from Baseline, Mean [2, 4]: −9.88
- SHAQ VAS Pain, Percent Change from Baseline, Median [2, 4]: 0.00
- SHAQ VAS Pain, Percent Change from Baseline, Min [2, 4]: −41.2,
- SHAQ VAS Pain, Percent Change from Baseline, Q1 [2, 4]: −41.18,
- SHAQ VAS Pain, Percent Change from Baseline, Q3 [2, 4]: 11.54
- % change in Pain ([2]; Cilnidipine 20 mg (n = 3)): −53%
- SHAQ VAS Pain, Change from Baseline, Max [2, 5]: 0.70
- SHAQ VAS Pain, Change from Baseline, Mean [2, 5]: −0.650
- SHAQ VAS Pain, Change from Baseline, Min [2, 5]: −2.00,
- SHAQ VAS Pain, Change from Baseline, Q1 [2, 5]: −1.400,
- SHAQ VAS Pain, Change from Baseline, Q3 [2, 5]: 0.100
- SHAQ VAS Pain, Day 12, Max [2, 5]: 4.30
- SHAQ VAS Pain, Day 12, Mean [2, 5]: 1.875
- SHAQ VAS Pain, Day 12, Median [2, 5]: 1.400
- SHAQ VAS Pain, Day 12, Min [2, 5]: 0.40,
- SHAQ VAS Pain, Day 12, Q1 [2, 5]: 0.550,
- SHAQ VAS Pain, Day 12, Q3 [2, 5]: 3.200
- SHAQ VAS Pain, Percent Change from Baseline, Mean [2, 5]: −34.56
- SHAQ VAS Pain, Percent Change from Baseline, Min [2, 5]: −55.6,
- SHAQ VAS Pain, Percent Change from Baseline, Q1 [2, 5]: −54.44,
- SHAQ VAS Pain, Percent Change from Baseline, Q3 [2, 5]: −14.67
- Visual Analog Scale-Pain, Change from Baseline, Mean [2, 6]: −0.100
- Visual Analog Scale-Pain, Change from Baseline, Median [2, 6]: 0.000
- Visual Analog Scale-Pain, Percent Change from Baseline, Median [2, 6]: 0.00%
- Visual Analog Scale-Pain, Change from Baseline, Mean [2, 7]: −1.100
- Visual Analog Scale-Pain, Change from Baseline, Median [2, 7]: −0.800
- Visual Analog Scale-Pain, In Clinic Visit (Day 12), Median ([2]; Modified ITT Population-Part A, dose cilnidipine 20 mg, tadalafil 5 mg, alone or combined as labelled): 0.700
- SHAQ Visual Analogue Scale - Pain, In-Clinic Visit (Day 12), Median ([2]; Pooled Cilnidipine 10 mg and Cilnidipine 10 mg + Tadalafil 5 mg (N = 9), Day 12, PP Population, Part A): 2.900
- SHAQ Visual Analogue Scale - Pain, In-Clinic Visit (Day 12), Median ([2]; Pooled Cilnidipine 20 mg and Cilnidipine 20 mg + Tadalafil 5 mg (N = 8), Day 12, PP Population, Part A): 2.100
- SHAQ Visual Analogue Scale - Pain, Change from Baseline, Mean (SD) [2, 8]: −0.375 (0.8311)
- SHAQ Visual Analogue Scale - Pain, In-Clinic Visit (Day 12), Mean (SD) [2, 8]: 1.875 (1.5944)
- SHAQ Visual Analogue Scale - Pain, Percent Change from Baseline, Mean (SD) [2, 8]: −23.98 (32.893) %
- % change in Pain ([2]; Pooled Cilnidipine (n = 7)): −31%
- % Δ from baseline, VAS Pain median ([2]; Pooled cilnidipine (n=6)): −45%
- SHAQ VAS-Pain (change) ([2]; cilnidipine 20 mg): −1.1

Reference: US20240358692A1, “TREATMENT OF SCLERODERMA” (Aisa Pharma, Inc., priority 2023, published 2024)
